ChEMBL document CHEMBL1201861, “Genomics of Drug Sensitity in Cancer screening data, Wellcome Trust Sanger Institute”

What was measured:
Test in all cases: cells
TCC-SUP = type: functional, cell-based, Homo sapiens; details: Homo sapiens, TCC-SUP;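 further: growth inhibition of TCC-SUP cells, read out with a cell viability assay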
Description: SANGER: Inhibition of human TCCSUP cell growth in a cell viability assay.

HCC1395 = type: functional, cell-based, Homo sapiens; details: Homo sapiens, HCC1395;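 further: growth inhibition of HCC1395 cells, read out by a cell viability assay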
Description: SANGER: Inhibition of human HCC1395 cell growth in a cell viability assay.

SW1990 = type: functional, cell-based, Homo sapiens; details: Homo sapiens, SW1990;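 further: cell growth inhibition determined with a viability assay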
Description: SANGER: Inhibition of human SW1990 cell growth in a cell viability assay.

NCI-H2347 = type: functional, cell-based, Homo sapiens; details: Homo sapiens, NCI-H2347;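 further: growth inhibition of the cell line, read out with a cell viability assay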
Description: SANGER: Inhibition of human NCI-H2347 cell growth in a cell viability assay.

KYSE-70 cell line = type: functional, cell-based, Homo sapiens; details: Homo sapiens, KYSE-70;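 further: cell viability assay read-out, with IC50 expressing suppression of KYSE-70 cell growth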
Description: SANGER: Inhibition of human KYSE-70 cell growth in a cell viability assay.

COLO-824 = type: functional, cell-based, Homo sapiens; details: Homo sapiens, COLO-824
Description: SANGER: Inhibition of human COLO-824 cell growth in a cell viability assay.

HCC1187 = type: functional, cell-based, Homo sapiens; details: Homo sapiens, HCC1187;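 further: growth inhibition of HCC1187 cells, read out with a cell viability assay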
Description: SANGER: Inhibition of human HCC1187 cell growth in a cell viability assay.

SAOS-2 = type: functional, cell-based, Homo sapiens; details: Homo sapiens, SAOS-2;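 further: growth inhibition of human Saos-2 cells determined by a cell viability assay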
Description: SANGER: Inhibition of human Saos-2 cell growth in a cell viability assay.

BPH-1 = type: functional, cell-based, Homo sapiens; details: Homo sapiens, BPH-1;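 further: cell viability assay measuring growth inhibition of human BPH-1 cells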
Description: SANGER: Inhibition of human BPH-1 cell growth in a cell viability assay.

NCI-H661 = type: functional, cell-based, Homo sapiens; details: Homo sapiens, NCI-H661;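 further: cell viability assay read-out, IC50 being the concentration that inhibits growth of the cells by half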
Description: SANGER: Inhibition of human NCI-H661 cell growth in a cell viability assay.

D-247MG = type: functional, cell-based, Homo sapiens; details: Homo sapiens, D-247MG
Description: SANGER: Inhibition of human D-247MG cell growth in a cell viability assay.

C3A = type: functional, cell-based, Homo sapiens; details: Homo sapiens, C3A;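 further: growth inhibition of C3A human cells, quantified with a cell viability readout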
Description: SANGER: Inhibition of human C3A cell growth in a cell viability assay.

SF-126 = type: functional, cell-based, Homo sapiens; details: Homo sapiens, SF-126;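 further: growth inhibition of human SF126 cells, read out with a cell viability assay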
Description: SANGER: Inhibition of human SF126 cell growth in a cell viability assay.

RVH-421 = type: functional, cell-based, Homo sapiens; details: Homo sapiens, RVH-421
Description: SANGER: Inhibition of human RVH-421 cell growth in a cell viability assay.

EOL1 = type: functional, cell-based; details: Homo sapiens;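 further: growth inhibition of EoL-1 cells, read out by a cell viability assay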
Description: SANGER: Inhibition of human EoL-1-cell cell growth in a cell viability assay.

NCI-H2087 = type: functional, cell-based, Homo sapiens; details: Homo sapiens, NCI-H2087;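 further: growth inhibition determined with a cell viability readout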
Description: SANGER: Inhibition of human NCI-H2087 cell growth in a cell viability assay.

SW626 = type: functional, cell-based, Homo sapiens; details: Homo sapiens, SW626;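 further: growth inhibition of SW626 cells, measured with a cell viability assay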
Description: SANGER: Inhibition of human SW626 cell growth in a cell viability assay.

SK-LU-1 = type: functional, cell-based, Homo sapiens; details: Homo sapiens, SK-LU-1;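 further: cell viability assay measuring growth inhibition of human SK-LU-1 cells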
Description: SANGER: Inhibition of human SK-LU-1 cell growth in a cell viability assay.

OCUB-M = type: functional, cell-based, Homo sapiens; details: Homo sapiens, OCUB-M;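 further: growth inhibition of the cancer cell line, read out through a cell viability assay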
Description: SANGER: Inhibition of human OCUB-M cell growth in a cell viability assay.

NCI-H2405 = type: functional, cell-based, Homo sapiens; details: Homo sapiens, NCI-H2405;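 further: growth inhibition of the human cell line, read out with a cell viability assay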
Description: SANGER: Inhibition of human NCI-H2405 cell growth in a cell viability assay.

CAL-85-1 = type: functional, cell-based; details: Homo sapiens;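 further: growth inhibition of human CAL-85-1 cells, read out with a cell viability assay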
Description: SANGER: Inhibition of human CAL-85-1 cell growth in a cell viability assay.

LB373-MEL-D = type: functional, cell-based, Homo sapiens; details: Homo sapiens, LB373-MEL-D;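 further: growth inhibition of the cell line, read out in a cell viability assay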
Description: SANGER: Inhibition of human LB373-MEL-D cell growth in a cell viability assay.

TE-8 = type: functional, cell-based, Homo sapiens; details: Homo sapiens, TE-8;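 further: growth inhibition of TE-8 cells, measured with a cell viability readout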
Description: SANGER: Inhibition of human TE-8 cell growth in a cell viability assay.

COR-L23 = type: functional, cell-based, Homo sapiens; details: Homo sapiens, COR-L23;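 further: cell viability assay measuring how strongly compounds suppress growth of COR-L23 cells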
Description: SANGER: Inhibition of human COR-L23 cell growth in a cell viability assay.

KS-1 = type: functional, cell-based, Homo sapiens; details: Homo sapiens, KS-1;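 further: growth inhibition of KS-1 cells, read out with a cell viability assay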
Description: SANGER: Inhibition of human KS-1 cell growth in a cell viability assay.

JVM-3 = type: functional, cell-based; details: Homo sapiens;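 further: growth inhibition of human JVM-3 cells, read out with a cell viability assay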
Description: SANGER: Inhibition of human JVM-3 cell growth in a cell viability assay.

COLO-792 = type: functional, cell-based, Homo sapiens; details: Homo sapiens, COLO-792
Description: SANGER: Inhibition of human COLO-792 cell growth in a cell viability assay.

NB5 = type: functional, cell-based, Homo sapiens; details: Homo sapiens, NB5;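 further: growth inhibition of NB5 cells, read out as cell viability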
Description: SANGER: Inhibition of human NB5 cell growth in a cell viability assay.

no-10 = type: functional, cell-based, Homo sapiens; details: Homo sapiens;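 further: growth inhibition of no-10 cells, read out with a cell viability assay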
Description: SANGER: Inhibition of human no-10 cell growth in a cell viability assay.

C32 = type: functional, cell-based, Homo sapiens; details: Homo sapiens, C32;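 further: cell viability assay, with IC50 reflecting inhibition of C32 cell growth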
Description: SANGER: Inhibition of human C32 cell growth in a cell viability assay.

LN-405 = type: functional, cell-based, Homo sapiens; details: Homo sapiens, LN-405
Description: SANGER: Inhibition of human LN-405 cell growth in a cell viability assay.

J-RT3-T3-5 = type: functional, cell-based; details: Homo sapiens;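 further: cell viability assay measuring growth inhibition of human J-RT3-T3-5 cells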
Description: SANGER: Inhibition of human J-RT3-T3-5 cell growth in a cell viability assay.

KINGS-1 = type: functional, cell-based, Homo sapiens; details: Homo sapiens, KINGS-1;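 further: cell viability assay measuring suppression of KINGS-1 cell growth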
Description: SANGER: Inhibition of human KINGS-1 cell growth in a cell viability assay.

MG-63 = type: functional, cell-based, Homo sapiens; details: Homo sapiens, MG-63;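 further: growth inhibition of human MG-63 cells, read out with a cell viability assay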
Description: SANGER: Inhibition of human MG-63 cell growth in a cell viability assay.

MPP-89 = type: functional, cell-based, Homo sapiens; details: Homo sapiens, MPP-89;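 further: growth inhibition of human MPP-89 cells, read out with a cell viability assay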
Description: SANGER: Inhibition of human MPP-89 cell growth in a cell viability assay.

NCI-H82 = type: functional, cell-based; details: Homo sapiens;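 further: growth inhibition of NCI-H82 cells, measured with a cell viability readout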
Description: SANGER: Inhibition of human NCI-H82 cell growth in a cell viability assay.

SAS = type: functional, cell-based, Homo sapiens; details: Homo sapiens, SAS;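 further: growth inhibition of SAS cells, read out with a cell viability assay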
Description: SANGER: Inhibition of human SAS cell growth in a cell viability assay.

ESS-1 = type: functional, cell-based, Homo sapiens; details: Homo sapiens, ESS-1;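 further: growth inhibition of human ESS-1 cells, read out by a cell viability assay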
Description: SANGER: Inhibition of human ESS-1 cell growth in a cell viability assay.

KNS-42 = type: functional, cell-based, Homo sapiens; details: Homo sapiens, KNS-42;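 further: growth inhibition of KNS-42 cells, read out with a cell viability assay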
Description: SANGER: Inhibition of human KNS-42 cell growth in a cell viability assay.

NCI-H292 = type: functional, cell-based, Homo sapiens; details: Homo sapiens, NCI-H292;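 further: growth inhibition of NCI-H292 cells, read out with a cell viability assay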
Description: SANGER: Inhibition of human NCI-H292 cell growth in a cell viability assay.

OVCAR-8 = type: functional, cell-based, Homo sapiens; details: Homo sapiens, OVCAR-8;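 further: growth inhibition of human OVCAR-8 cells, read out by a cell viability assay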
Description: SANGER: Inhibition of human OVCAR-8 cell growth in a cell viability assay.

SW872 = type: functional, cell-based, Homo sapiens; details: Homo sapiens, SW872;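 further: growth inhibition of SW872 cells, read out by a viability assay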
Description: SANGER: Inhibition of human SW872 cell growth in a cell viability assay.

LAN-6 = type: functional, cell-based, Homo sapiens; details: Homo sapiens, LAN-6;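 further: growth inhibition of LAN-6 cells, determined with a cell viability assay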
Description: SANGER: Inhibition of human LAN-6 cell growth in a cell viability assay.

ACN = type: functional, cell-based, Homo sapiens; details: Homo sapiens, ACN;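 further: growth inhibition of the human ACN cell line, read out via cell viability testing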
Description: SANGER: Inhibition of human ACN cell growth in a cell viability assay.

CAKI-1 = type: functional, cell-based, Homo sapiens; details: Homo sapiens, CAKI-1;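 further: growth inhibition of CAKI-1 cells, measured by a cell viability assay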
Description: SANGER: Inhibition of human CAKI-1 cell growth in a cell viability assay.

AN3-CA = type: functional, cell-based; details: Homo sapiens;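 further: growth inhibition of human AN3-CA cells measured by a cell viability assay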
Description: SANGER: Inhibition of human AN3-CA cell growth in a cell viability assay.

CAL-62 = type: functional, cell-based, Homo sapiens; details: Homo sapiens, CAL-62;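 further: growth inhibition of CAL-62 cells, read out with a cell viability assay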
Description: SANGER: Inhibition of human CAL-62 cell growth in a cell viability assay.

ES1 = type: functional, cell-based, Homo sapiens; details: Homo sapiens, ES1;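 further: growth inhibition of ES1 cells, read out with a cell viability assay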
Description: SANGER: Inhibition of human ES1 cell growth in a cell viability assay.

NKM-1 = type: functional, cell-based; details: Homo sapiens;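 further: growth inhibition of NKM-1 cells, read out with a cell viability assay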
Description: SANGER: Inhibition of human NKM-1 cell growth in a cell viability assay.

SiHa = type: functional, cell-based, Homo sapiens; details: Homo sapiens, SiHa;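 further: Viability-based readout of growth inhibition in SiHa cells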
Description: SANGER: Inhibition of human SiHa cell growth in a cell viability assay.

NCI-H358 = type: functional, cell-based, Homo sapiens; details: Homo sapiens, NCI-H358;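 further: growth inhibition of NCI-H358 human cells, read out with a cell viability assay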
Description: SANGER: Inhibition of human NCI-H358 cell growth in a cell viability assay.

With `C=CCNC1=C2C[C@@H](C)C[C@H](OC)[C@H](O)[C@@H](C)/C=C(\C)[C@H](OC(N)=O)[C@@H](OC)/C=C\C=C(/C)C(=O)NC(=CC1=O)C2=O` [TANESPIMYCIN] the IC50 (TCC-SUP) was 59.6 nM, the IC50 (HCC1395) was over 1000 nM and the IC50 (SW1990) was 122 nM. The IC50 (NCI-H2347) was 148 nM, the IC50 (KYSE-70 cell line) was 333 nM and the IC50 (COLO-824) was 173 nM. The IC50 (HCC1187) was over 1000 nM, the IC50 (SAOS-2) was 879 nM and the IC50 (BPH-1) was 134 nM. The IC50 (NCI-H661) was 611 nM, the IC50 (D-247MG) was 94.5 nM and the IC50 (C3A) was 454 nM. For the same compound, the IC50 (SF-126) was over 1000 nM, the IC50 (RVH-421) was 191 nM and the IC50 (EOL1) was 222 nM. It also gave an IC50 (NCI-H2087) of 174 nM, an IC50 (SW626) of 335 nM and an IC50 (SK-LU-1) of 30.8 nM. For the same compound, the IC50 (OCUB-M) was over 1000 nM, the IC50 (NCI-H2405) was 346 nM and the IC50 (CAL-85-1) was over 1000 nM. It also gave an IC50 (LB373-MEL-D) of over 1000 nM, an IC50 (TE-8) of 113 nM and an IC50 (COR-L23) of 468 nM. The IC50 (KS-1) was 13.6 nM, the IC50 (JVM-3) was 638 nM and the IC50 (COLO-792) was 313 nM. The IC50 (NB5) was over 1000 nM, the IC50 (no-10) was over 1000 nM and the IC50 (C32) was 3.04 nM. It also gave an IC50 (LN-405) of 417 nM, an IC50 (J-RT3-T3-5) of over 1000 nM and an IC50 (KINGS-1) of 245 nM. For the same compound, the IC50 (MG-63) was over 1000 nM, the IC50 (MPP-89) was 141 nM and the IC50 (NCI-H82) was over 1000 nM. For the same compound, the IC50 (SAS) was 127 nM, the IC50 (ESS-1) was 248 nM and the IC50 (KNS-42) was over 1000 nM. For the same compound, the IC50 (NCI-H292) was 131 nM, the IC50 (OVCAR-8) was 86.2 nM and the IC50 (SW872) was 608 nM. The IC50 (LAN-6) was over 1000 nM, the IC50 (ACN) was 41.6 nM and the IC50 (CAKI-1) was 321 nM. It also gave an IC50 (AN3-CA) of 50 nM, an IC50 (CAL-62) of 162 nM and an IC50 (ES1) of over 1000 nM. For the same compound, the IC50 (NKM-1) was 107 nM, the IC50 (SiHa) was 105 nM and the IC50 (NCI-H358) was 687 nM.
Compound `CCC1=C[C@@H]2CN(C1)Cc1c([nH]c3ccccc13)[C@@](C(=O)OC)(c1cc3c(cc1OC)N(C)[C@H]1[C@@](O)(C(=O)OC)[C@H](OC(C)=O)[C@]4(CC)C=CCN5CC[C@]31[C@@H]54)C2` [VINORELBINE] has an IC50 (TCC-SUP) of 27.1 nM, an IC50 (HCC1395) of 15.9 nM and an IC50 (SW1990) of over 64 nM. It also gave an IC50 (NCI-H2347) of 26.1 nM, an IC50 (KYSE-70 cell line) of 16.7 nM and an IC50 (COLO-824) of 47.2 nM. For the same compound, the IC50 (HCC1187) was 13.9 nM, the IC50 (SAOS-2) was over 64 nM and the IC50 (BPH-1) was 1.9 nM. For the same compound, the IC50 (NCI-H661) was 20.4 nM, the IC50 (D-247MG) was 12.6 nM and the IC50 (C3A) was over 64 nM. The IC50 (SF-126) was over 64 nM, the IC50 (RVH-421) was 3.88 nM and the IC50 (EOL1) was 9.09 nM. It also gave an IC50 (NCI-H2087) of 8.22 nM, an IC50 (SW626) of 37.7 nM and an IC50 (SK-LU-1) of 51.8 nM. It also gave an IC50 (OCUB-M) of 4.43 nM, an IC50 (NCI-H2405) of 50.7 nM and an IC50 (CAL-85-1) of 4.9 nM. It also gave an IC50 (LB373-MEL-D) of 46.8 nM, an IC50 (TE-8) of 46 nM and an IC50 (COR-L23) of 9.89 nM. It also gave an IC50 (KS-1) of 1.47 nM, an IC50 (JVM-3) of over 64 nM and an IC50 (COLO-792) of over 64 nM. The IC50 (NB5) was over 64 nM, the IC50 (no-10) was 45.6 nM and the IC50 (C32) was over 64 nM. For the same compound, the IC50 (LN-405) was over 64 nM, the IC50 (J-RT3-T3-5) was 6.83 nM and the IC50 (KINGS-1) was over 64 nM. The IC50 (MG-63) was 2.94 nM, the IC50 (MPP-89) was over 64 nM and the IC50 (NCI-H82) was 60 nM. The IC50 (SAS) was over 64 nM, the IC50 (ESS-1) was 9.14 nM and the IC50 (KNS-42) was 8.03 nM. The IC50 (NCI-H292) was 5.05 nM, the IC50 (OVCAR-8) was 6.6 nM and the IC50 (SW872) was 5.65 nM. For the same compound, the IC50 (LAN-6) was over 64 nM, the IC50 (ACN) was 1.33 nM and the IC50 (CAKI-1) was over 64 nM. For the same compound, the IC50 (AN3-CA) was 6.27 nM, the IC50 (CAL-62) was 8.18 nM and the IC50 (ES1) was 3.78 nM. The IC50 (NKM-1) was 4.97 nM, the IC50 (SiHa) was over 64 nM and the IC50 (NCI-H358) was 5.89 nM.
